The subject of the assay is KMS11 (human myeloma cell line). Put plainly: Cell Proliferation Assay (CellTiter-Glo, 3 days). The class given is cell-based. The note with it: KMS-11, 72 h, KMS11-luc cells. As for the experimental part: KMS11 (human myeloma cell line), were cultured in IMDM supplemented with 10% FBS, sodium pyruvate and antibiotics. Cells were plated in the same medium at a density of 2000 cells per well into 96 well tissue culture plates, with outside wells vacant, on the day of assay.
Test compounds supplied in DMSO were diluted into DMSO at 500 times the desired final concentrations before dilution into culture media to 2 times final concentrations. Equal volumes of 2× compounds were added to the cells in 96 well plates and incubated at 37° C. for 3 days.
After 3 days plates were equilibrated to room temperature and equal volume of CellTiter-Glow Reagent (Promega) was added to the culture wells. The plates were agitated briefly and luminescent signal was measured with luminometer.
Using the procedures of Cell Proliferation Assay, the EC50 concentrations of compounds of the examples were determined in KMS11 cells as shown in Table 4.
As a reminder, the EC50 is the concentration that produces a half-maximal response. The low end stands for higher potency in that assay, the high end for lower potency in that assay. The molecule `C[C@@H]1C[C@H](N)C[C@H](c2ccncc2NC(=O)c2ccc(F)c(-c3c(F)cc(S(C)(=O)=O)cc3F)n2)C1` [Example 1, N-(4-((1R,3S,5S)-3-amino-5-methylcyclohexyl)pyridin-3-yl)-6-(2,6-difluoro-4-(methylsulfonyl)phenyl)-5-fluoropicolinamide] gave a concentration for a half-maximal effect (EC50) of 383 nM.
The value for `Cc1cc(F)c(-c2nc(C(=O)Nc3cnccc3[C@H]3C[C@@H](N)[C@H](O)[C@@H](C)C3)ccc2F)c(F)c1` [Example 4, N-(4-((1R,3R,4R,5S)-3-amino-4-hydroxy-5-methylcyclohexyl)pyridin-3-yl)-6-(2,6-difluoro-4-methylphenyl)-5-fluoropicolinamide] was 70 nM.
The value for `COc1cc(F)c(-c2nc(C(=O)Nc3cnccc3[C@H]3C[C@@H](N)[C@H](O)[C@@H](C)C3)ccc2F)c(F)c1` [Example 5, N-(4-((1R,3R,4R,5S)-3-amino-4-hydroxy-5-methylcyclohexyl)pyridin-3-yl)-6-(2,6-difluoro-4-methoxyphenyl)-5-fluoropicolinamide] was 62 nM; that for `Cc1cc(F)c(-c2nc(C(=O)Nc3cnccc3[C@H]3C[C@@H](N)[C@@H](O)[C@@H](C)C3)ccc2F)c(F)c1` [Example 6, N-(4-((1R,3R,4S,5S)-3-amino-4-hydroxy-5-methylcyclohexyl)pyridin-3-yl)-6-(2,6-difluoro-4-methylphenyl)-5-fluoropicolinamide] was 41 nM; that for `Cc1cc(F)c(-c2nc(C(=O)Nc3cnccc3[C@@H]3C[C@H](C)C[C@H](N)C3)ccc2F)c(F)c1` [Example 8, N-(4-((1R,3S,5S)-3-amino-5-methylcyclohexyl)pyridin-3-yl)-6-(2,6-difluoro-4-methylphenyl)-5-fluoropicolinamide] was 46 nM.
Turning to `COc1cc(F)c(-c2nc(C(=O)Nc3cnccc3[C@@H]3C[C@H](C)C[C@H](N)C3)ccc2F)c(F)c1` [Example 11, N-(4-((1R,3S,5S)-3-amino-5-methylcyclohexyl)pyridin-3-yl)-6-(2,6-difluoro-4-methoxyphenyl)-5-fluoropicolinamide], the EC50 worked out at 71 nM.
Consider `C[C@H]1C[C@@H](c2ccncc2NC(=O)c2ccc(F)c(-c3c(F)cc(S(C)(=O)=O)cc3F)n2)C[C@@H](N)[C@@H]1O` [Example 14, N-(4-((1R,3R,4R,5S)-3-amino-4-hydroxy-5-methylcyclohexyl)pyridin-3-yl)-6-(2,6-difluoro-4-(methylsulfonyl)phenyl)-5-fluoropicolinamide], for which it took 1440 nM to reach a half-maximal effect (EC50).
As to `CSc1cc(F)c(-c2nc(C(=O)Nc3cnccc3[C@H]3C[C@@H](N)[C@@H](O)[C@@H](C)C3)ccc2F)c(F)c1` [Example 19, N-(4-((1R,3R,4S,5S)-3-amino-4-hydroxy-5-methylcyclohexyl)pyridin-3-yl)-6-(2,6-difluoro-4-(methylthio)phenyl)-5-fluoropicolinamide], the EC50 came to 74 nM.
Take `C[C@H]1C[C@@H](c2ccncc2NC(=O)c2ccc(F)c(-c3c(F)cc([S@+](C)[O-])cc3F)n2)C[C@@H](N)[C@@H]1O` [Example 27, N-(4-((1R,3R,4R,5S)-3-amino-4-hydroxy-5-methylcyclohexyl)pyridin-3-yl)-6-(2,6-difluoro-4-((S)-methylsulfinyl)phenyl)-5-fluoropicolinamide]: a half-maximal response (EC50) required 90 nM.
The value for `C[C@H]1C[C@@H](c2ccncc2NC(=O)c2ccc(F)c(-c3c(F)cc([S@@+](C)[O-])cc3F)n2)C[C@@H](N)[C@@H]1O` [Example 28] was 3880 nM; that for `C[C@H]1C[C@@H](c2ccncc2NC(=O)c2ccc(F)c(-c3c(F)cc(CCO)cc3F)n2)C[C@@H](N)[C@@H]1O` [Example 34, N-(4-((1R,3R,4R,5S)-3-amino-4-hydroxy-5-methylcyclohexyl)pyridin-3-yl)-6-(2,6-difluoro-4-(2-hydroxyethyl)phenyl)-5-fluoropicolinamide] was 29 nM; that for `CSc1cc(F)c(-c2nc(C(=O)Nc3cnccc3[C@H]3C[C@@H](N)[C@H](O)[C@@H](C)C3)ccc2F)c(F)c1` [Example 36, N-(4-((1R,3R,4R,5S)-3-amino-4-hydroxy-5-methylcyclohexyl)pyridin-3-yl)-6-(2,6-difluoro-4-(methylthio)phenyl)-5-fluoropicolinamide] was 107 nM.
The value for `CCc1cc(F)c(-c2nc(C(=O)Nc3cnccc3[C@H]3C[C@@H](N)[C@H](O)[C@@H](C)C3)ccc2F)c(F)c1` [Example 39, N-(4-((1R,3R,4R,5S)-3-amino-4-hydroxy-5-methylcyclohexyl)pyridin-3-yl)-6-(4-ethyl-2,6-difluorophenyl)-5-fluoropicolinamide] was 55 nM; that for `C[C@H]1C[C@@H](c2ccncc2NC(=O)c2ccc(F)c(-c3c(F)cc(C4(O)COC4)cc3F)n2)C[C@@H](N)[C@@H]1O` [Example 54, N-(4-((1R,3R,4R,5S)-3-amino-4-hydroxy-5-methylcyclohexyl)pyridin-3-yl)-6-(2,6-difluoro-4-(3-hydroxyoxetan-3-yl)phenyl)-5-fluoropicolinamide] was 95 nM.
The value for `C[C@H]1C[C@@H](c2ccncc2NC(=O)c2ccc(F)c(-c3c(F)cc(C4COC4)cc3F)n2)C[C@@H](N)[C@@H]1O` [Example 56, N-(4-((1R,3R,4R,5S)-3-amino-4-hydroxy-5-methylcyclohexyl)pyridin-3-yl)-6-(2,6-difluoro-4-(oxetan-3-yl)phenyl)-5-fluoropicolinamide] was 31 nM; that for `C[C@@H]1C[C@H](N)C[C@H](c2ccncc2NC(=O)c2ccc(F)c(-c3c(F)cc(C(F)F)cc3F)n2)C1` [Example 57, N-(4-((1R,3S,5S)-3-amino-5-methylcyclohexyl)pyridin-3-yl)-6-(4-(difluoromethyl)-2,6-difluorophenyl)-5-fluoropicolinamide] was 42 nM; that for `C[C@H]1C[C@@H](c2ccncc2NC(=O)c2ccc(F)c(-c3c(F)cc(C(F)F)cc3F)n2)C[C@@H](N)[C@@H]1O` [Example 58, N-(4-((1R,3R,4R,5S)-3-amino-4-hydroxy-5-methylcyclohexyl)pyridin-3-yl)-6-(4-(difluoromethyl)-2,6-difluorophenyl)-5-fluoropicolinamide] was 42 nM.
`C[C@H]1C[C@@H](c2ccncc2NC(=O)c2ccc(F)c(-c3c(F)cc(C4(O)CCC4)cc3F)n2)C[C@@H](N)[C@@H]1O` [Example 60, N-(4-((1R,3R,4R,5S)-3-amino-4-hydroxy-5-methylcyclohexyl)pyridin-3-yl)-6-(2,6-difluoro-4-(1-hydroxycyclobutyl)phenyl)-5-fluoropicolinamide] yielded a concentration giving a half-maximal response (EC50) of 15 nM.
In the case of `C[C@H]1C[C@@H](c2ccncc2NC(=O)c2ccc(F)c(-c3c(F)cc(C(C)(C)O)cc3F)n2)C[C@@H](N)[C@@H]1O` [Example 66, N-(4-((1R,3R,4R,5S)-3-amino-4-hydroxy-5-methylcyclohexyl)pyridin-3-yl)-6-(2,6-difluoro-4-(2-hydroxypropan-2-yl)phenyl)-5-fluoropicolinamide], the midpoint of the response, the EC50, lay at 11 nM.
The value for `C[C@H]1C[C@@H](c2ccncc2NC(=O)c2ccc(F)c(-c3c(F)cc(C4CC4)cc3F)n2)C[C@@H](N)[C@@H]1O` [Example 72, N-(4-((1R,3R,4R,5S)-3-amino-4-hydroxy-5-methylcyclohexyl)pyridin-3-yl)-6-(4-cyclopropyl-2,6-difluorophenyl)-5-fluoropicolinamide] was 139 nM.
